Source: US12252524B2, “GIP/GLP1 co-agonist compounds” (Eli Lilly and Company, priority 2018, dated 2025)
Numbered stars: 1 amine (or outer) side, 2 acyl side, 3 side chain; on linkers, the order of the positions; unused ones are H or OH. Square brackets hold non-standard residues; d marks the D form. Side chains are listed from the residue outwards. Peptide text beside a SMILES is read from it. * marks the point of attachment. C20 diacid = O=C(O)CCCCCCCCCCCCCCCCCCC(=O)*; γGlu = O=C(O)[C@H](CCC(=O)[*:2])N[*:1]; αMeF = C[C@](N)(Cc1ccccc1)C(=O)O; αMeL = CC(C)C[C@](C)(N)C(=O)O; AEEA = NCCOCCOCC(=O)O; Aib = CC(C)(N)C(=O)O

Experiments:
[1] = biological target: T1, human Gcg receptor (Homo sapiens, UniProt P47871); assay: [125I]-Glucagon binding (SPA), human Gcg receptor; settings: read-out: hGLcgR Ki, nM (SEM, n)
T1 construct: expressed in transfected cells; crude membranes
Outline: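 Scintillation counts are taken after membranes and WGA beads incubate and settle for 12 hours at room temperature. Buffer is 25 mM HEPES, pH 7.4, with CaCl2, MgCl2, bacitracin and Tween-20. Ki values, from four-parameter IC50 fits, are geometric means over independent days.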

[2] = biological target: T2, human GIP receptor (Homo sapiens, UniProt P48546); assay: [125I]-GIP binding (SPA), human GIP receptor; settings: read-out: hGIPR Ki, nM (SEM, n)
T2 construct: expressed in transfected cells; crude membranes
T2 sequence (P48546 22-466): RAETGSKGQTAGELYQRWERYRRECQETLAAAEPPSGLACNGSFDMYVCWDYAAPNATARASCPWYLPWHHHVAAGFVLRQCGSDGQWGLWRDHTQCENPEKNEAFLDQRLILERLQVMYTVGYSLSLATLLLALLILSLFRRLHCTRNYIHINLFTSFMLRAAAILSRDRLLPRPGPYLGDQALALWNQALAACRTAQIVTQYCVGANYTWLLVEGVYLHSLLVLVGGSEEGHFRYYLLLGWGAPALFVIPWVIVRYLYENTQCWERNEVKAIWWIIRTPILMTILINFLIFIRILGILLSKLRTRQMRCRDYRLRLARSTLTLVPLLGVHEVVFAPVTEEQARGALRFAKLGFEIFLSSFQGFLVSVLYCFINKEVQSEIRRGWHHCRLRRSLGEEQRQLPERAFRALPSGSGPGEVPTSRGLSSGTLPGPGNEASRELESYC

[3] = biological target: human GLP-1 receptor (GLP-1R) (Homo sapiens, UniProt P43220); assay: cAMP pharmacological functional assay in presence of casein, hGLP-1R; format: cell-based; settings: HEK293 cells expressing hGLP-1R, 0.1% Casein, geometric mean; read-out: hGLP1R cAMP Rel EC50 nM (SEM, n)
[4] = biological target: T3, gastric inhibitory peptide receptor (GIPR) (Homo sapiens, UniProt P48546); assay: cAMP pharmacological functional assay in presence of casein, hGIPR; format: cell-based; settings: HEK293 cells expressing hGIPR, 0.1% Casein, geometric mean; read-out: hGIPR cAMP Rel EC50 nM (SEM, n)
T3 sequence (P48546 22-466): T2 sequence (P48546 22-466)

[5] = biological target: human GLP-1R (Homo sapiens, UniProt P43220); assay: [125I]-GLP-1 binding (SPA), human GLP-1 receptor; design: expressed in transfected cells; crude membranes; settings: read-out: hGLP1R Ki, (nM) (SEM, n)
Outline: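 Membranes: hypotonic lysis (50 mM Tris HCl, pH 7.5, protease inhibitors), Potter-Elvehjem homogenization, high-speed pellet (35000×g 1 h or 25000×g 30 min, 4° C.). Buffer: 25 mM HEPES pH 7.4, 2.5 mM CaCl2, 1 mM MgCl2. Four-parameter IC50 fit; Ki as geometric mean ± SEM.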

human GLP-1 receptor (GLP-1R), sequence (P43220 24-463): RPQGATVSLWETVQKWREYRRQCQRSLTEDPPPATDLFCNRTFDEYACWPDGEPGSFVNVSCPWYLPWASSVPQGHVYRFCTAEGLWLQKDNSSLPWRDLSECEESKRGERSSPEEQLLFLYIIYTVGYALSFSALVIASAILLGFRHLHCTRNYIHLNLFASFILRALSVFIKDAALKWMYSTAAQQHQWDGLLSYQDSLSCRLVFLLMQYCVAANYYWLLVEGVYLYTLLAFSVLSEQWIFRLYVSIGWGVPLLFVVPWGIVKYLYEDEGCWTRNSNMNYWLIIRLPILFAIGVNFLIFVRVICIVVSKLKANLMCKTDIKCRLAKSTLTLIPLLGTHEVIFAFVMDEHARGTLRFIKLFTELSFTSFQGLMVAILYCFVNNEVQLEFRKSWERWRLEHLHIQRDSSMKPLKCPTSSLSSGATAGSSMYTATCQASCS
human GLP-1R, sequence (P43220 24-463): as above
T1 sequence (P47871 26-477): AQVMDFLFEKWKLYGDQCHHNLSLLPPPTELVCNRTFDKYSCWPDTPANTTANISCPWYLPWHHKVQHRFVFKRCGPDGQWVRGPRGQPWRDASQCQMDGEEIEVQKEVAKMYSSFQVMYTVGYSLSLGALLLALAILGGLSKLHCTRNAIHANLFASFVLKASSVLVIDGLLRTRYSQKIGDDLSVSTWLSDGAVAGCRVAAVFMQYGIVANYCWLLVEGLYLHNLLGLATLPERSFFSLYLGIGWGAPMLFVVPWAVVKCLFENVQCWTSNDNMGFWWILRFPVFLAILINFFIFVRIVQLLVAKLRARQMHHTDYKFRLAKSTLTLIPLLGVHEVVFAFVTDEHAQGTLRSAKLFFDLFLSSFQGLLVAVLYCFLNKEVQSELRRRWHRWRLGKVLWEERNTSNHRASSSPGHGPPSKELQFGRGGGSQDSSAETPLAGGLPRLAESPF

| SMILES | Ki [1] [nM] | Ki [2] [nM] | EC50 [3] [nM] | EC50 [4] [nM] | Ki [5] [nM] |
| --- | --- | --- | --- | --- | --- |
| CC[C@H](C)[C@H](NC(=O)[C@H](CC(C)C)NC(=O)[C@H](Cc1ccc(O)cc1)NC(=O)[C@H](CCC(=O)O)NC(=O)[C@@H](NC(=O)[C@H](Cc1ccccc1)NC(=O)[C@H](CC(=O)O)NC(=O)C(C)(C)NC(=O)[C@H](CCC(N)=O)NC(=O)[C@H](C)NC(=O)[C@H](CCCCNC(=O)COCCOCCNC(=O)COCCOCCNC(=O)CC[C@H](NC(=O)CCCCCCCCCCCCCCCCCCC(=O)O)C(=O)O)NC(=O)[C@H](CCCCN)NC(=O)[C@H](CC(=O)O)NC(=O)[C@H](CC(C)C)NC(=O)[C@](C)(CC(C)C)NC(=O)[C@@H](NC(=O)[C@H](CO)NC(=O)[C@H](Cc1ccc(O)cc1)NC(=O)[C@H](CC(=O)O)NC(=O)[C@H](CO)NC(=O)[C@@H](NC(=O)[C@](C)(Cc1ccccc1)NC(=O)[C@@H](NC(=O)CNC(=O)[C@H](CCC(=O)O)NC(=O)C(C)(C)NC(=O)[C@@H](N)Cc1ccc(O)cc1)[C@@H](C)O)[C@@H](C)O)[C@@H](C)CC)[C@@H](C)CC)C(=O)N[C@@H](CCC(=O)O)C(=O)NCC(=O)NCC(=O)N1CCC[C@H]1C(=O)N[C@@H](CO)C(=O)N[C@@H](CO)C(=O)NCC(=O)N[C@@H](C)C(=O)N1CCC[C@H]1C(=O)N1CCC[C@H]1C(=O)N1CCC[C@H]1C(=O)N[C@@H](CO)C(N)=O [Example 140] (H-Y[Aib]EGT[αMeF]TSDYSI[αMeL]LDKK([AEEA-AEEA-γGlu-C20 diacid])AQ[Aib]DFIEYLIEGGPSSGAPPPS-NH2) | 175 | 0.0474 | 0.0424 | 0.0349 | 1.46 |
| CC[C@H](C)[C@H](NC(=O)[C@H](CC(C)C)NC(=O)[C@H](Cc1ccc(O)cc1)NC(=O)[C@H](CCC(=O)O)NC(=O)[C@@H](NC(=O)[C@H](Cc1ccccc1)NC(=O)[C@H](Cc1c[nH]cn1)NC(=O)C(C)(C)NC(=O)[C@H](CCC(N)=O)NC(=O)[C@H](C)NC(=O)[C@H](CCCCNC(=O)COCCOCCNC(=O)COCCOCCNC(=O)CC[C@H](NC(=O)CCCCCCCCCCCCCCCCCCC(=O)O)C(=O)O)NC(=O)[C@H](CCCCN)NC(=O)[C@H](CC(=O)O)NC(=O)[C@H](CC(C)C)NC(=O)[C@](C)(CC(C)C)NC(=O)[C@@H](NC(=O)[C@H](CO)NC(=O)[C@H](Cc1ccc(O)cc1)NC(=O)[C@H](CC(=O)O)NC(=O)[C@H](CO)NC(=O)[C@@H](NC(=O)[C@](C)(Cc1ccccc1)NC(=O)[C@@H](NC(=O)CNC(=O)[C@H](CCC(=O)O)NC(=O)C(C)(C)NC(=O)[C@@H](N)Cc1ccc(O)cc1)[C@@H](C)O)[C@@H](C)O)[C@@H](C)CC)[C@@H](C)CC)C(=O)N[C@@H](CCC(=O)O)C(=O)NCC(=O)NCC(=O)N1CCC[C@H]1C(=O)N[C@@H](CO)C(=O)N[C@@H](CO)C(=O)NCC(=O)N[C@@H](C)C(=O)N1CCC[C@H]1C(=O)N1CCC[C@H]1C(=O)N1CCC[C@H]1C(=O)N[C@@H](CO)C(N)=O [Example 142] (H-Y[Aib]EGT[αMeF]TSDYSI[αMeL]LDKK([AEEA-AEEA-γGlu-C20 diacid])AQ[Aib]HFIEYLIEGGPSSGAPPPS-NH2; N-terminus assumed) | 53.1 | 0.0275 | 0.0426 | 0.0489 | 1.06 |
| CC[C@H](C)[C@H](NC(=O)[C@H](CC(C)C)NC(=O)[C@H](Cc1ccc(O)cc1)NC(=O)[C@H](CCC(=O)O)NC(=O)[C@@H](NC(=O)[C@H](Cc1ccccc1)NC(=O)C(C)(C)NC(=O)C(C)(C)NC(=O)[C@H](CCC(N)=O)NC(=O)[C@H](C)NC(=O)[C@H](CCCCNC(=O)COCCOCCNC(=O)COCCOCCNC(=O)CC[C@H](NC(=O)CCCCCCCCCCCCCCCCCCC(=O)O)C(=O)O)NC(=O)[C@H](CCCCN)NC(=O)[C@H](CC(=O)O)NC(=O)[C@H](CC(C)C)NC(=O)[C@](C)(CC(C)C)NC(=O)[C@@H](NC(=O)[C@H](CO)NC(=O)[C@H](Cc1ccc(O)cc1)NC(=O)[C@H](CC(=O)O)NC(=O)[C@H](CO)NC(=O)[C@@H](NC(=O)[C@](C)(Cc1ccccc1)NC(=O)[C@@H](NC(=O)CNC(=O)[C@H](CCC(=O)O)NC(=O)C(C)(C)NC(=O)[C@@H](N)Cc1ccc(O)cc1)[C@@H](C)O)[C@@H](C)O)[C@@H](C)CC)[C@@H](C)CC)C(=O)N[C@@H](CCC(=O)O)C(=O)NCC(=O)NCC(=O)N1CCC[C@H]1C(=O)N[C@@H](CO)C(=O)N[C@@H](CO)C(=O)NCC(=O)N[C@@H](C)C(=O)N1CCC[C@H]1C(=O)N1CCC[C@H]1C(=O)N1CCC[C@H]1C(=O)N[C@@H](CO)C(N)=O [Example 143] (H-Y[Aib]EGT[αMeF]TSDYSI[αMeL]LDKK([AEEA-AEEA-γGlu-C20 diacid])AQ[Aib][Aib]FIEYLIEGGPSSGAPPPS-NH2) | 65.5 | 0.0304 | 0.0745 | 0.0515 | 1.15 |
| CC[C@H](C)[C@H](NC(=O)[C@H](CC(C)C)NC(=O)[C@H](Cc1ccc(O)cc1)NC(=O)[C@H](CCC(=O)O)NC(=O)[C@@H](NC(=O)[C@H](Cc1ccccc1)NC(=O)C(C)(C)NC(=O)[C@H](Cc1c[nH]cn1)NC(=O)[C@H](CCC(N)=O)NC(=O)[C@H](C)NC(=O)[C@H](CCCCNC(=O)COCCOCCNC(=O)COCCOCCNC(=O)CC[C@H](NC(=O)CCCCCCCCCCCCCCCCCCC(=O)O)C(=O)O)NC(=O)[C@H](CCCCN)NC(=O)[C@H](CC(=O)O)NC(=O)[C@H](CC(C)C)NC(=O)[C@](C)(CC(C)C)NC(=O)[C@@H](NC(=O)[C@H](CO)NC(=O)[C@H](Cc1ccc(O)cc1)NC(=O)[C@H](CC(=O)O)NC(=O)[C@H](CO)NC(=O)[C@@H](NC(=O)[C@](C)(Cc1ccccc1)NC(=O)[C@@H](NC(=O)CNC(=O)[C@H](CCC(=O)O)NC(=O)C(C)(C)NC(=O)[C@@H](N)Cc1ccc(O)cc1)[C@@H](C)O)[C@@H](C)O)[C@@H](C)CC)[C@@H](C)CC)C(=O)N[C@@H](CCC(=O)O)C(=O)NCC(=O)NCC(=O)N1CCC[C@H]1C(=O)N[C@@H](CO)C(=O)N[C@@H](CO)C(=O)NCC(=O)N[C@@H](C)C(=O)N1CCC[C@H]1C(=O)N1CCC[C@H]1C(=O)N1CCC[C@H]1C(=O)N[C@@H](CO)C(N)=O [Example 144] (H-Y[Aib]EGT[αMeF]TSDYSI[αMeL]LDKK([AEEA-AEEA-γGlu-C20 diacid])AQH[Aib]FIEYLIEGGPSSGAPPPS-NH2) | 77 | 0.0341 | 0.0608 | 0.0375 | 1.78 |
| CC[C@H](C)[C@H](NC(=O)[C@H](CC(C)C)NC(=O)[C@H](Cc1ccc(O)cc1)NC(=O)[C@H](CCC(=O)O)NC(=O)[C@@H](NC(=O)[C@H](Cc1ccccc1)NC(=O)[C@H](C)NC(=O)C(C)(C)NC(=O)[C@H](CCC(N)=O)NC(=O)[C@H](C)NC(=O)[C@H](CCCCNC(=O)COCCOCCNC(=O)COCCOCCNC(=O)CC[C@H](NC(=O)CCCCCCCCCCCCCCCCCCC(=O)O)C(=O)O)NC(=O)[C@H](CCCCN)NC(=O)[C@H](CC(=O)O)NC(=O)[C@H](CC(C)C)NC(=O)[C@](C)(CC(C)C)NC(=O)[C@@H](NC(=O)[C@H](CO)NC(=O)[C@H](C)NC(=O)[C@H](CC(=O)O)NC(=O)[C@H](CO)NC(=O)[C@@H](NC(=O)[C@](C)(Cc1ccccc1)NC(=O)[C@@H](NC(=O)CNC(=O)[C@H](CCC(=O)O)NC(=O)C(C)(C)NC(=O)[C@@H](N)Cc1ccc(O)cc1)[C@@H](C)O)[C@@H](C)O)[C@@H](C)CC)[C@@H](C)CC)C(=O)N[C@@H](CCC(=O)O)C(=O)NCC(=O)NCC(=O)N1CCC[C@H]1C(=O)N[C@@H](CO)C(=O)N[C@@H](CO)C(=O)NCC(=O)N[C@@H](C)C(=O)N1CCC[C@H]1C(=O)N1CCC[C@H]1C(=O)N1CCC[C@H]1C(=O)N[C@@H](CO)C(N)=O [Example 145] (H-Y[Aib]EGT[αMeF]TSDASI[αMeL]LDKK([AEEA-AEEA-γGlu-C20 diacid])AQ[Aib]AFIEYLIEGGPSSGAPPPS-NH2) | 158 | 0.0652 | 0.0427 | 0.0514 | 2.22 |
